Results reported in PMC8037310, “Thrombin-Derived Peptides Potentiate the Activity of Gram-Positive-Specific Antibiotics against Gram-Negative Bacteria” (Molecules, 2021).
Where “and” joins values, the source holds several entries; their conditions need not be identical. Identical values can stand only once. Like-named read-outs stand apart in the source and are kept apart here. Peptide text beside a SMILES is read from it.

Key:
E. coli BW25113 [1] = assay: Checkerboard assay with erythromycin; format: cell-based, Escherichia coli; conditions: for MSCery: erythromycin concentration in the combination with the synergist giving the lowest FICi, E. coli BW25113; for MIC of the peptide (MICpep): synergist alone, from checkerboard with erythromycin; for MIC of the peptide (MICpep) / MSCpeptide, minimum synergistic concentration: E. coli BW25113, LB, 20 h 37 °C; for MSCpeptide, minimum synergistic concentration: synergist concentration in the combination with erythromycin giving the lowest FICi, OD600; for FICi: with erythromycin vs E. coli BW25113, synergy defined as FICi ≤ 0.5
Protocol: (§1) All peptides were screened for antimicrobial activity against E. coli BW25113, E. coli ATCC25922, and E. coli W3110. A select group of the peptides was further tested against E. coli mcr-1, E. coli EQASmcr-1 (EQAS 2016 412016126), E. coli EQASmcr-2 (EQAS 2016 KP37), E. coli EQASmcr-3 (EQAS 2017 2013-SQ352), K. pneumoniae ATCC13883, P. aeruginosa ATCC27853, and A. baumannii ATCC17978. The antimicrobial assay was performed according to CLSI guidelines. Bacteria were plated out directly from their glycerol stocks on blood agar plates, incubated overnight at 37 °C, and then kept in the fridge. The blood agar plates were only used for 2 weeks and then replaced.
(§2) One colony from a blood agar plates was inoculated in Lysogeny Broth (LB) at 37 °C until a 0.5 optical density at 600 nm (OD600) was reached (compared to the sterility control of LB). The bacterial suspension was diluted in fresh LB to 2.0 × 10^6 CFU/mL. The serial dilutions were prepared in polypropylene microtiter plates: a stock of the test compounds was prepared with a 2x final concentration in LB. Moreover, 100 µL of the stock was added to the wells of the top row of which 50 µL was used for the serial dilution. The bottom row of each plate was used as the positive (50 µL of LB) and negative controls (100 µL of LB) (6 wells each). Furthermore, 50 µL of the 2.0 × 10^6 CFU/mL bacterial stock was added to each well except for the negative controls, adding up to a total volume of 100 µL per well. The plates were sealed with a breathable seal and incubated for 20 h at 37 °C and 600 rpm.
(§3) Two 96-well plates were required per compound. A serial dilution of the compound was performed on two plates from row A–G using with LB as medium. Row H was filled with 25 µL medium. On a separate plate a negative control (8 wells, 100 μL medium) was prepared. For all concentrations of antibiotic a specific stock was prepared. 25 µL medium was added to the 0 µg/mL antibiotic columns (plate I, column 1–3). Of each antibiotic stock 25 µL was added to three columns to obtain triplicates for every condition. Both plates contained 50 µL in each well to which 50 µL bacterial stock was added (see the protocol of the MIC assays) and the plates were sealed. After incubation for 20 h at 37 °C while shaking, the breathable seals were removed and the density of the bacterial suspensions measured at 600 nm (OD600) using a Tecan Spark plate reader. The OD600 values were transformed to a 2D gradient with the negative control as minimum and the positive control (wells G1, G2, and G3) as maximum in excel. The FICi was calculated using Equation (1) with a FICi ≤ 0.5 indicating synergy. FICi = (MSCa/MICa) + (MSCb/MICb),(1)
(§4) Calculation of the FICi: MSCa = concentration of the […] in combination with the antibiotic that results in the lowest FICi. MICa = MIC of the antibiotic without synergist (row G). MSCb = concentration of the synergist in combination with the antibiotic that results in the lowest FICi. MICb = MIC of the synergist itself (Column 1–3, plate I).

E. coli BW25113 [2] = format: cell-based, Escherichia coli; conditions: for MICpep: synergist alone, E. coli BW25113, from checkerboard with rifampicin; for MSCpep: synergist concentration in the combination with rifampicin giving the lowest FICi
Protocol: as §1, §2, §3, §4

[3] = tested on: defibrinated sheep blood (red blood cells); assay: Hemolysis assay; format: cell-based; conditions: 200 µg/mL compound, 20 h incubation at 37 °C with defibrinated sheep blood, PBS 0.002% Tween20, absorbance 415 nm, relative to 0.1% Triton X-100; n=3 technical replicates
Protocol: Defibrinated sheep blood (Thermo Fisher Scientific) and a phosphate-buffered saline (PBS) buffer containing 0.002% Tween20 were used in this assay. The red blood cells were washed with buffer followed by centrifugation (400 g for 15 min at 4 °C). The red blood cells were then normalized to obtain a positive control read-out around 2.5 at 415 nm to stay in the linear range with the maximum sensitivity. A serial dilution of the compounds (200–1.56 µg/mL, 75 µL) was prepared in a 96-well plate. Each plate contained a positive control (0.1% Triton X-100 final concentration, 75 µL) and the negative control (buffer, 75 µL). After addition of normalized blood cells (75 µL), the plates were incubated for 20 h at 37 °C at 500 rpm. The plates were centrifuged (800× g for 5 min at room temperature). For the next step flat-bottom polystyrene plates were prepared with 100 µL buffer in each well. Aliquots of 25 µL supernatant from the centrifuged plates were then transferred to their respective wells in the flat-bottom plate. Absorbance values where measured at 415 nm and corrected for background (negative control) and transformed to a percentage hemolysis relative to the positive control.

Structure (SMILES) | MSCery (E. coli BW25113 [1]) [µg/mL] | MIC of the peptide (MICpep) (E. coli BW25113 [1]) [µg/mL] | MSCpeptide, minimum synergistic concentration (E. coli BW25113 [1]) [µg/mL] | FICi (E. coli BW25113 [1]) | FICi (E. coli BW25113 [2]; BW25113, 20 h) | MICpep (E. coli BW25113 [2]) [µg/mL] | MSCpep (E. coli BW25113 [2]; E. coli BW25113) [µg/mL] | Hemolysis [3] | MSCrif (E. coli BW25113 [2]; rifampicin concentration in the combination giving the lowest FICi, E. coli BW25113) [µg/mL] | FICi (E. coli BW25113 [2]; with rifampicin vs E. coli BW25113, synergy defined as FICi ≤ 0.5)
CC[C@H](C)[C@H](NC(=O)[C@@H](NC(=O)[C@H](CCCCN)NC(=O)[C@H](CCC(N)=O)NC(=O)[C@@H](NC(=O)[C@H](Cc1c[nH]c2ccccc12)NC(=O)[C@H](CCCCN)NC(=O)[C@H](CCCCN)NC(=O)[C@H](CC(C)C)NC(=O)[C@H](CCCNC(=N)N)NC(=O)[C@H](C)NC(=O)[C@@H](N)C(C)C)[C@@H](C)CC)C(C)C)C(N)=O [peptide 9] (H-VARLKKWIQKVI-NH2) | 12.5 | 50 | 3.125 | 0.1250 | 0.1406 | 200 | 25 | 0.1% and 0% | – | –
CC[C@H](C)[C@H](NC(=O)[C@@H](NC(=O)[C@H](C)NC(=O)[C@H](CCC(N)=O)NC(=O)[C@@H](NC(=O)[C@H](Cc1c[nH]c2ccccc12)NC(=O)[C@H](CCCCN)NC(=O)[C@H](CCCCN)NC(=O)[C@H](CC(C)C)NC(=O)[C@H](CCCNC(=N)N)NC(=O)[C@H](Cc1ccccc1)NC(=O)[C@@H](N)C(C)C)[C@@H](C)CC)C(C)C)C(N)=O [compound 17] (H-VFRLKKWIQAVI-NH2) | 6.25 | 12.5 | 6.25 | > 0.5 | 0.2656 | 25 | 6.25 | 20.7% and 21% | – | –
CC[C@H](C)[C@H](NC(=O)[C@@H](NC(=O)[C@H](CCCCN)NC(=O)[C@H](CCC(N)=O)NC(=O)[C@H](C)NC(=O)[C@H](Cc1c[nH]c2ccccc12)NC(=O)[C@H](CCCCN)NC(=O)[C@H](CCCCN)NC(=O)[C@H](CC(C)C)NC(=O)[C@H](CCCNC(=N)N)NC(=O)[C@H](Cc1ccccc1)NC(=O)[C@@H](N)C(C)C)C(C)C)C(N)=O [compound 15] (H-VFRLKKWAQKVI-NH2) | 12.5 | 100 | 12.5 | – | 0.0938 | 100 | 6.25 | 0.9% and 1% | 0.25 | –
CC[C@H](C)[C@H](NC(=O)[C@@H](NC(=O)[C@H](CCCCN)NC(=O)[C@H](CCC(N)=O)NC(=O)[C@@H](NC(=O)[C@H](Cc1c[nH]c2ccccc12)NC(=O)[C@H](CCCCN)NC(=O)[C@H](C)NC(=O)[C@H](CC(C)C)NC(=O)[C@H](CCCNC(=N)N)NC(=O)[C@H](Cc1ccccc1)NC(=O)[C@@H](N)C(C)C)[C@@H](C)CC)C(C)C)C(N)=O [compound 12] (H-VFRLAKWIQKVI-NH2) | 1.563 | 25 | 12.5 | > 0.5 | – | 25 | 12.5 | 30.2% and 30% | – | > 0.5
CC[C@H](C)[C@H](NC(=O)[C@@H](NC(=O)[C@H](CCCCN)NC(=O)[C@H](CCC(N)=O)NC(=O)[C@@H](NC(=O)[C@H](Cc1c[nH]c2ccccc12)NC(=O)[C@H](CCCCN)NC(=O)[C@H](CCCCN)NC(=O)[C@H](CC(C)C)NC(=O)[C@H](CCCNC(=N)N)NC(=O)[C@H](Cc1ccccc1)NC(=O)[C@@H](NC(C)=O)C(C)C)[C@@H](C)CC)C(C)C)C(N)=O [peptide 7] (Ac-VFRLKKWIQKVI-NH2) | 3.125 | 50 | 12.5 | – | – | 50 | 12.5 | 4.6% and 5% | – | –
